Measured values from US6927208B1, “Cyclosporin with improved activity profile” (Debiopharm S.A., priority 1998, dated 2005).

Experiments:
cyclophilin A = cyclophilin A (Homo sapiens, UniProt P62937); assay: competitive ELISA test, affinity of Cs derivatives for cyclophilin A; type: binding; details: 1.0 = binds as well as CsA, lower than 1.0 = binds better
Description: The results of Table 1 show the affinity of the derivatives of Cs for cyclophilin A in a competitive ELISA test described by Quesniaux in Eur. J. Immunology 1987, 17, 1359-1365. In this test, during incubation with cyclophilin, Cs bound to BSA (serum albumin) is added to the Cs to be tested. The concentration required to obtain 50% inhibition (IC50) of the reference reaction in the absence of competitor is then calculated. The results are expressed by the binding index BI which is the ratio of the IC50 of the derivative and the IC50 of CsA.

[1] = tested on: Balb/c mouse spleen cells stimulated with treated CBA mouse spleen cells; assay: mixed lymphocyte reaction (MLR), immunosuppressive activity; type: cell-based, mice; details: 5 days, greater than 1.0 = less active than CsA, >20 = not immunosuppressive
Description: Cs is regarded as being immunosuppressive if its activity in the mixed lymphocyte reaction (MLR) is greater than 5%. The reaction (MLR) is described by T. Meo in “Immunological Methods”, L. Lefkovits and […]: 227-239 (1979). Spleen cells (0.5.10^6) originating from Balb/c mice (female, 8 to 10 weeks) are co-incubated for 5 days in the presence of treated spleen cells originating from CBA mice (females, 8 to 10 weeks). These cells were treated with mitomycin C or were irradiated at 2000 rads. […] The IC50 calculated in the MLR test is compared with the IC50 corresponding to CsA in a parallel experiment.

HIV in CEM-SS cell line = assay: protection during infection with HIV of a CEM-SS cell line (measured by the NCI); type: cell-based; details: mean value at a derivative concentration of 2×10^−6 molar, compared with infection in the absence of Cs
Description: The protection of this line in the presence of a Cs derivative is compared with the infection of a line cultivated in the absence of Cs (reference control). A mean value is established at a concentration of the derivative of 2×10^−6 molar. This anti-HIV activity was measured by the NCI (National Cancer Institute) in Washington in the USA.

cyclophilin A, sequence (P62937 whole entry, species assumed): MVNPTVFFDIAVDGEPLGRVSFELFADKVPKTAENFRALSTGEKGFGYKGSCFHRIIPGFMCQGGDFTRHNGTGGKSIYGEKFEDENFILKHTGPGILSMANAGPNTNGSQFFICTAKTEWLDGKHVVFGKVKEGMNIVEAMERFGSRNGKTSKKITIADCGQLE

Row | Molecule | BI (binding index: ratio of the IC50 of the derivative and the IC50 of CsA) (cyclophilin A) | IR (ratio of the IC50 of the MLR test of the derivative over the IC50 of cyclosporin A) [1] | Percentage HIV Protection (HIV in CEM-SS cell line)
1 | C/C=C/C[C@@H](C)[C@@H](O)[C@H]1C(=O)N[C@@H](CC)C(=O)N(C)CC(=O)N(C)[C@@H]([C@@H](C)CC)C(=O)N[C@@H](C(C)C)C(=O)N(C)[C@@H](CC(C)C)C(=O)N[C@@H](C)C(=O)N[C@H](C)C(=O)N(C)[C@@H](CC(C)C)C(=O)N(C)[C@@H](CC(C)C)C(=O)N(C)[C@@H](C(C)C)C(=O)N1C [UNIL 007, MeIle^4-Cs] | 0.5 | >200 | 68.5
2 | EtIle4-Cs [UNIL 013] | 1.3 | >200 | 
3 | EtPhe(4-CH2PO(OMe)2)-Cs [UNIL 014] | 0.5 | >200 | 
4 | EtVal^4-Cs [UNIL 004] | 1.0 | >200 | 74.9
5 | MeVal^4-Cs [UNIL 002] | 0.6 | >200 | 66.4
6 | cyclosporin A [UNIL 001] | 1.0 | 1.0 | 
